In patent publication US6664400B2 (dated 2003) one finds melting point data, which are given here for one compound.

One may read the melting point as the temperature of the solid-liquid transition. Take `O=C1[C@H]2C[C@H](F)CN2C(=O)N1c1cc(NS(=O)(=O)CCl)c(Cl)cc1F`: the melting point was 168 to 170 °C.
